Data: ChEMBL document CHEMBL4610075, “Isolation, Absolute Configuration, and Biological Activities of Chebulic Acid and Brevifolincarboxylic Acid Derivatives from Euphorbia hirta” (J Nat Prod, 2020)

system: not listed separately; test: Antioxidant activity assessed as DPPH radical scavenging activity after 30 mins; assay type: functional; details: not given

EC50 [µM]	SMILES
15.8	CCOC(=O)C[C@@H](C(=O)O)[C@H]1c2c(cc(O)c(O)c2O)C(=O)O[C@@H]1C(=O)OCC
6.5	CCOC(=O)Cc1c2c3c(cc(O)c(O)c3oc1=O)C(=O)OC2C(=O)OC (racemic)
8	COC(=O)Cc1c2c3c(cc(O)c(O)c3oc1=O)C(=O)OC2
4.7	O=C(O)Cc1c2c3c(cc(O)c(O)c3oc1=O)C(=O)OC2
10.8	CCOC(=O)/C(=C/C(=O)O)[C@H]1c2c(cc(O)c(O)c2O)C(=O)O[C@@H]1C(=O)OCC
9.2	O=C1O[C@H]([C@@H](O)CO)C(O)=C1O [ASCORBIC ACID]
7.6	O=C1CCc2c1oc(=O)c1cc(O)c(O)c(O)c21
3	O=C1C[C@H](C(=O)O)c2c1oc(=O)c1cc(O)c(O)c(O)c21
8.1	CCOC(=O)[C@H]1OC(=O)c2cc(O)c(O)c(O)c2[C@@H]1[C@@H](CC(=O)O)C(=O)OCC
9.9	CCOC(=O)C1OC(=O)c2cc(O)c(O)c3oc(=O)c(CC(=O)O)c1c23 (racemic)
5.4	CCOC(=O)/C=C(/C(=O)OCC)[C@H]1c2c(cc(O)c(O)c2O)C(=O)O[C@@H]1C(=O)O

The remaining lines, values behind:

SMILES	EC50 [µM]
CCOC(=O)Cc1c2c3c(cc(O)c(O)c3oc1=O)C(=O)C2(O)C(=O)OCC (racemic)	5.3
CCOC(=O)C1(OCC)CC(=O)c2oc(=O)c3cc(O)c(O)c(O)c3c21 (racemic)	4
COC(=O)[C@H]1CC(=O)c2oc(=O)c3cc(O)c(O)c(O)c3c21	6
CCOC(=O)Cc1c2c3c(cc(O)c(O)c3oc1=O)C(=O)OC2C(=O)OCC (racemic)	4.2
CCOC(=O)C[C@@H](C(=O)OCC)[C@H]1c2c(cc(O)c(O)c2O)C(=O)O[C@@H]1C(=O)OCC	6.8
COC(=O)C1OC(=O)c2cc(O)c(O)c3oc(=O)c(CC(=O)O)c1c23 (racemic)	7.7
CCOC(=O)[C@H]1CC(=O)c2oc(=O)c3cc(O)c(O)c(O)c3c21	6.7
CCOC(=O)Cc1c2c3c(cc(O)c(O)c3oc1=O)C(=O)OC2	2.2
CCOC(=O)/C=C(/C(=O)OC)[C@H]1c2c(cc(O)c(O)c2O)C(=O)O[C@@H]1C(=O)OCC	6
CCOC(=O)/C=C(/C(=O)OCC)[C@H]1c2c(cc(O)c(O)c2O)C(=O)O[C@@H]1C(=O)OCC	2.2
CCOC(=O)[C@H]1CC(=O)c2c1c1c(O)c(O)c(O)cc1c(=O)n2CCCC(=O)OC	6.7
CCOC(=O)/C=C(/C(=O)OCC)[C@H]1c2c(cc(O)c(O)c2O)C(=O)O[C@@H]1C(=O)OC	4.4
CCOC(=O)/C=C(/C(=O)O)[C@H]1c2c(cc(O)c(O)c2O)C(=O)O[C@@H]1C(=O)OCC	8.1

system: BV-2; test: Antineuroinflammatory activity in mouse BV2 cells assessed as inhibition of LPS-induced NO production incubated for 24 hrs by Griess assay; assay type: functional, cell-based; details: BV-2, 24 h

IC50 [µM]	SMILES
27	O=C1CCc2c1oc(=O)c1cc(O)c(O)c(O)c21
18.5	CN(C)c1ccc(O)c2c1C[C@H]1C[C@H]3[C@H](N(C)C)C(O)=C(C(N)=O)C(=O)[C@@]3(O)C(O)=C1C2=O [MINOCYCLINE]

The remaining lines, values behind:

SMILES	IC50 [µM]
CCOC(=O)Cc1c2c3c(cc(O)c(O)c3oc1=O)C(=O)C2(O)C(=O)OCC (racemic)	31.5
CCOC(=O)[C@H]1CC(=O)c2oc(=O)c3cc(O)c(O)c(O)c3c21	30.5
